{"source": "patent US9394352B2", "about": "“Immunogenic POTE peptides and methods of use” (The United States of America, as represented by the …, priority 2010, dated 2016)", "system": "NCI-H522 cells (POTE+/HLA-A2)", "test": "CTL cytotoxicity against human cancer cells", "assay_type": "cell-based", "conditions": "HHD-2 mice immunized with 50 nmol peptide, restimulated 7 days with 1000 nM peptide; POTE-expressing NCI-H522 human lung cancer cells", "description": "FIGS. 8A-8B are graphs showing anti-tumor cytotoxicity induced by enhanced POTE epitopes. AAD mice were immunized s.c. with 50 nmol of peptide in 100 μl of emulsion. (FIG. 8A) Anti-tumor cytotoxicity against a POTE-expressing human lung cancer cell line NCI-H522 induced by POTE 553-1Y, 323-3F and 252-9V. HHD-2 mice were immunized with 50 nmol of peptide in 100 μl of emulsion and restimulated for 7 days with 1000 nM peptide before being tested for ability to lyse the tumor cells. (FIG. 8B) Summary of the anti-tumor cytotoxicity in POTE-expressing and non-POTE-expressing human tumor cells. NCI-H522 is a human lung cancer line expressing both POTE and HLA-A2, whereas HTB-19 is a human mammary carcinoma that expresses POTE but not HLA-A2, and MDA-MB-231 is a human mammary carcinoma cell line expressing HLA-A2 but not POTE.\nAAD or HHD-2 mice were immunized subcutaneously (s.c.) in the base of the tail with 100 μl of an emulsion containing 1:1 incomplete Freund's adjuvant (Sigma) and PBS with peptides and cytokines (50 nmol of CTL epitope, 50 nmol of hepatitis B virus core 128-140 helper epitope, 5 μg of mouse interleukin-12, and 5 μg of mouse granulocyte macrophage colony-stimulating factor). Cytokines were purchased from Peprotech (Rocky Hill, N.J.). Mice were boosted 2 weeks later, and the spleens were removed 2 weeks after the boost. For all experiments, groups of three mice were used.\nSplenocytes from the immunized mice were re-stimulated with peptide-loaded splenocytes (1 μM, or 10 nM). On day 1 and day 5, rat T STIM™ (BD Bioscience) was added as a source of IL-2. One week later, CTL activity was measured by using a 4-hour ^51Cr releasing assay. […] The percentage of specific ^51Cr release is calculated as 100× [(experimental release-spontaneous release)/(maximum release-spontaneous release)]. Spontaneous release is determined from target cells incubated without effector cells, and maximum release is determined in the presence of 5% triton-X. C1R.AAD or C1R.A2.1 cell lines were used as targets. […]", "note": "Where no end group is shown, it is not given here."}
{"sequence": "YILEEIESV [POTE 553-1Y]", "values": [{"measurement": "anti-tumor cytotoxicity of peptide-induced CTLs", "result": "produced significant cytotoxicity to lyse NCI-H522 cells"}]}
{"sequence": "LLFEQNVDV [POTE 323-3F]", "values": [{"measurement": "anti-tumor cytotoxicity of peptide-induced CTLs", "result": "produced significant cytotoxicity to lyse NCI-H522 cells"}]}
{"sequence": "KLMAKALLV [POTE 252-9V]", "values": [{"measurement": "anti-tumor cytotoxicity of peptide-induced CTLs", "result": "did not kill POTE-expressing cancer cells"}]}
